This note sets out measurements from the supplement of paper PMC10307832.

What all share (assay): relative viability (nuclei count vs DMSO), 5 days (fraction); higher = more cells survive
Compound in assay [1]: C1=CC=C(C(=C1)C2=CC=C(C=C2)C3=CSC4=C3C(=C(C(=O)N4)C#N)O)O + Nc1nc2[nH]cc(CCc3ccc(C(=O)N[C@@H](CCC(=O)O)C(=O)O)cc3)c2c(=O)[nH]1 [Pemetrexed] (partner 0.2 µM)
The procedure, abridged: (§1)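 Relative viability was taken as the ratio of nuclei in treated wells to nuclei in vehicle wells. Lung cancer cell lines in 1536-well plates received compounds by pin tool one day after seeding, either one drug alone or a fixed anchor-drug dose plus five library-drug doses (not always all listed) in √10 steps. Nuclei were counted on 4× images after 5 days of treatment, and values are medians of duplicate plates.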

Compound in assay [2]: O=C(CCCCCCNC(=O)c1cnc(N(c2ccccc2)c2ccccc2)nc1)NO [Ricolinostat] + CC(=O)Nc1cccc(-n2c(=O)n(C3CC3)c(=O)c3c(Nc4ccc(I)cc4F)n(C)c(=O)c(C)c32)c1 [Trametinib] (partner 0.02 µM)
The procedure, abridged: as §1

Compound in assay [3]: C1=CC=C(C(=C1)C2=CC=C(C=C2)C3=CSC4=C3C(=C(C(=O)N4)C#N)O)O + Nc1ncn([C@H]2C[C@H](O)[C@@H](CO)O2)c(=O)n1 [Decitabine] (partner 2 µM)
In outline:
as §1

Compound in assay [4]: C1=CC=C(C(=C1)C2=CC=C(C=C2)C3=CSC4=C3C(=C(C(=O)N4)C#N)O)O + NC(=O)Nc1cc(-c2cccc(F)c2)sc1C(=O)N[C@H]1CCCNC1 [AZD7762] (partner 0.2 µM)
In outline:
as §1

As to RERF-LC-KJ, the relative viability in assay [1] (first compound 0.08 µM) is 0.468; in assay [1] (first compound 0.253 µM), 0.521; in assay [1] (first compound 0.8 µM), 0.485; in assay [1] (first compound 2.53 µM), 0.441; in assay [1] (first compound 8 µM), 0.552; in assay [2] (first compound 0.08 µM), 0.869. For the same cell line, the relative viability in assay [2] (first compound 0.253 µM) amounted to 0.836; in assay [2] (first compound 0.8 µM), 0.805; in assay [2] (first compound 2.53 µM), 0.715; in assay [3] (first compound 0.08 µM) it was 0.762; in assay [3] (first compound 0.253 µM) it was 0.756; in assay [3] (first compound 0.8 µM), 0.609. Besides, the relative viability in assay [3] (first compound 2.53 µM) amounted to 0.819; in assay [3] (first compound 8 µM), 0.681; in assay [4] (first compound 0.08 µM), 0.884; in assay [4] (first compound 0.253 µM) it was 1.06; in assay [4] (first compound 0.8 µM), 0.947; in assay [4] (first compound 2.53 µM), 0.778. Also, in assay [4] (first compound 8 µM), the relative viability is 0.553.

Consider BEN, for which the relative viability in assay [1] (first compound 0.08 µM) amounted to 0.694; in assay [1] (first compound 0.253 µM), 0.786; in assay [1] (first compound 0.8 µM), 0.761; in assay [1] (first compound 2.53 µM), 0.857; in assay [1] (first compound 8 µM), 0.761; in assay [2] (first compound 0.08 µM), 0.816. In addition, the relative viability is 0.905 in assay [2] (first compound 0.253 µM); 0.828 in assay [2] (first compound 0.8 µM); 0.796 in assay [2] (first compound 2.53 µM); 0.605 in assay [3] (first compound 0.08 µM); 0.745 in assay [3] (first compound 0.253 µM); 0.771 in assay [3] (first compound 0.8 µM). In addition, the relative viability worked out at 0.717 in assay [3] (first compound 2.53 µM); 0.653 in assay [3] (first compound 8 µM); 0.647 in assay [4] (first compound 0.08 µM); 0.692 in assay [4] (first compound 0.253 µM); 0.675 in assay [4] (first compound 0.8 µM); 0.807 in assay [4] (first compound 2.53 µM). Moreover, in assay [4] (first compound 8 µM), the relative viability is 0.73.

Consider NCI-H358, for which the relative viability in assay [1] (first compound 0.08 µM) was found to be 0.156; in assay [1] (first compound 0.253 µM), 0.188; in assay [1] (first compound 0.8 µM) it was 0.175; in assay [1] (first compound 2.53 µM) it was 0.162; in assay [1] (first compound 8 µM) it was 0.176; in assay [2] (first compound 0.08 µM) it was 0.125. In addition, the relative viability in assay [2] (first compound 0.253 µM) was found to be 0.135; in assay [2] (first compound 0.8 µM) it was 0.173; in assay [2] (first compound 2.53 µM), 0.176; in assay [3] (first compound 0.08 µM) it was 0.205; in assay [3] (first compound 0.253 µM) it was 0.23; in assay [3] (first compound 0.8 µM), 0.205. Besides, the relative viability in assay [3] (first compound 2.53 µM) came out at 0.2; in assay [3] (first compound 8 µM) it was 0.177; in assay [4] (first compound 0.08 µM) it was 0.486; in assay [4] (first compound 0.253 µM), 0.542; in assay [4] (first compound 0.8 µM), 0.532; in assay [4] (first compound 2.53 µM), 0.605. Further, the relative viability in assay [4] (first compound 8 µM) is 0.488.

With NCI-H1944, the relative viability in assay [1] (first compound 0.08 µM) is 0.609; in assay [1] (first compound 0.253 µM), 0.697; in assay [1] (first compound 0.8 µM), 0.571; in assay [1] (first compound 2.53 µM), 0.646; in assay [1] (first compound 8 µM), 0.632; in assay [2] (first compound 0.08 µM) it was 0.46. Also, the relative viability in assay [2] (first compound 0.253 µM) is 0.469; in assay [2] (first compound 0.8 µM), 0.442; in assay [2] (first compound 2.53 µM), 0.407; in assay [3] (first compound 0.08 µM), 0.454; in assay [3] (first compound 0.253 µM) it was 0.44; in assay [3] (first compound 0.8 µM), 0.39. Also, the relative viability was 0.468 in assay [3] (first compound 2.53 µM); 0.465 in assay [3] (first compound 8 µM); 0.67 in assay [4] (first compound 0.08 µM); 0.537 in assay [4] (first compound 0.253 µM); 0.696 in assay [4] (first compound 0.8 µM); 0.469 in assay [4] (first compound 2.53 µM). Moreover, in assay [4] (first compound 8 µM), the relative viability worked out at 0.603.

Consider 201T, for which the relative viability in assay [1] (first compound 0.08 µM) is 0.354; in assay [1] (first compound 0.253 µM), 0.331; in assay [1] (first compound 0.8 µM) it was 0.358; in assay [1] (first compound 2.53 µM), 0.353; in assay [1] (first compound 8 µM) it was 0.298; in assay [2] (first compound 0.08 µM), 0.713. Besides, the relative viability in assay [2] (first compound 0.253 µM) turned out to be 0.709; in assay [2] (first compound 0.8 µM) it was 0.689; in assay [2] (first compound 2.53 µM), 0.772; in assay [3] (first compound 0.08 µM), 0.844; in assay [3] (first compound 0.253 µM) it was 0.826; in assay [3] (first compound 0.8 µM), 0.875. For the same cell line, the relative viability in assay [3] (first compound 2.53 µM) was 0.894; in assay [3] (first compound 8 µM), 0.916; in assay [4] (first compound 0.08 µM), 0.634; in assay [4] (first compound 0.253 µM) it was 0.616; in assay [4] (first compound 0.8 µM) it was 0.652; in assay [4] (first compound 2.53 µM), 0.704. Further, the relative viability in assay [4] (first compound 8 µM) came out at 0.717.

Take NCI-H647: the relative viability in assay [1] (first compound 0.253 µM) was found to be 0.18; in assay [1] (first compound 0.8 µM), 0.16; in assay [1] (first compound 2.53 µM), 0.17; in assay [1] (first compound 8 µM), 0.189; in assay [2] (first compound 0.08 µM), 0.372; in assay [2] (first compound 0.253 µM) it was 0.464. The relative viability in assay [2] (first compound 0.8 µM) turned out to be 0.51; in assay [2] (first compound 2.53 µM), 0.564; in assay [3] (first compound 0.253 µM), 0.532; in assay [3] (first compound 0.8 µM), 0.407; in assay [3] (first compound 2.53 µM), 0.439; in assay [3] (first compound 8 µM) it was 0.279. In addition, the relative viability in assay [4] (first compound 0.08 µM) is 0.294; in assay [4] (first compound 0.253 µM) it was 0.337; in assay [4] (first compound 0.8 µM), 0.276; in assay [4] (first compound 2.53 µM), 0.39; in assay [4] (first compound 8 µM) it was 0.301.

Take NCI-H441: the relative viability is 0.26 in assay [1] (first compound 0.08 µM); 0.282 in assay [1] (first compound 0.253 µM); 0.232 in assay [1] (first compound 0.8 µM); 0.237 in assay [1] (first compound 2.53 µM); 0.267 in assay [1] (first compound 8 µM); 0.259 in assay [2] (first compound 0.08 µM). Also, the relative viability in assay [2] (first compound 0.253 µM) worked out at 0.521; in assay [2] (first compound 0.8 µM), 0.629; in assay [2] (first compound 2.53 µM), 0.697; in assay [3] (first compound 0.08 µM), 0.28; in assay [3] (first compound 0.253 µM) it was 0.3; in assay [3] (first compound 0.8 µM) it was 0.286. The relative viability is 0.242 in assay [3] (first compound 2.53 µM); 0.233 in assay [3] (first compound 8 µM); 1.02 in assay [4] (first compound 0.08 µM); 1.17 in assay [4] (first compound 0.253 µM); 1.33 in assay [4] (first compound 0.8 µM); 1.57 in assay [4] (first compound 2.53 µM). The relative viability in assay [4] (first compound 8 µM) worked out at 1.02.

As for PC-3 [JPC-3], the relative viability in assay [1] (first compound 0.08 µM) came to 1.08; in assay [1] (first compound 0.253 µM), 1.19; in assay [1] (first compound 0.8 µM), 1.06; in assay [1] (first compound 2.53 µM) it was 0.942; in assay [1] (first compound 8 µM) it was 0.98; in assay [2] (first compound 0.08 µM) it was 0.662. The relative viability stood at 0.641 in assay [2] (first compound 0.253 µM); 0.713 in assay [2] (first compound 0.8 µM); 0.633 in assay [2] (first compound 2.53 µM); 0.806 in assay [3] (first compound 0.08 µM); 0.879 in assay [3] (first compound 0.253 µM); 0.844 in assay [3] (first compound 0.8 µM). The relative viability in assay [3] (first compound 2.53 µM) was 0.956; in assay [3] (first compound 8 µM), 0.805; in assay [4] (first compound 0.08 µM) it was 0.597; in assay [4] (first compound 0.253 µM), 0.935; in assay [4] (first compound 0.8 µM) it was 0.645; in assay [4] (first compound 2.53 µM), 0.745. Further, in assay [4] (first compound 8 µM), the relative viability was determined as 0.618.
